Test results from BindingDB's records for doi:10.1016/j.bmc.2003.11.015 (Bristol-Myers Squibb Pharmaceutical Research Institute, 2004).
pKi: −log10 of the molar value. Structures can show the parent of a compound that is named as a salt.

target: D(2) dopamine receptor (Rattus norvegicus, UniProt P61169)
Sequence (P61169 whole entry): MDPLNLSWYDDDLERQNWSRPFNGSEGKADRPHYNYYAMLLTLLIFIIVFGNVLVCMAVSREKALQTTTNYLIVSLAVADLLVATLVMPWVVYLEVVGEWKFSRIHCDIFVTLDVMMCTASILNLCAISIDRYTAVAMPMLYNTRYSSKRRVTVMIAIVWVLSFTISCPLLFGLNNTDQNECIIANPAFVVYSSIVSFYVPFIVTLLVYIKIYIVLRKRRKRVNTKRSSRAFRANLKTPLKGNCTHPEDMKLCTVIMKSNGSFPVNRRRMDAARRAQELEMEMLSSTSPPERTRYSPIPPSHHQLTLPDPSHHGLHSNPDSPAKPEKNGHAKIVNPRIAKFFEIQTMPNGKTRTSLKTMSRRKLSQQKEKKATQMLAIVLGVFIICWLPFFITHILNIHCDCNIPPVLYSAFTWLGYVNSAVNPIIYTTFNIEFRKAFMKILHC

Row | Compound | pKi
1 | Oc1cc(Cl)c2c(c1O)Cc1cccc3c1[C@H]2CNC3 (racemic) [CAS_0] | 7.80
2 | Oc1ccc2c(c1O)Cc1c(F)ccc3c1[C@H]2CNC3 [NSC_0] | 8.15
3 | O=[N+]([O-])c1cc(O)c(O)c2c1[C@@H]1CNCc3cccc(c31)C2 (racemic) [NSC_0] | 5.96
4 | Oc1ccc2c(c1O)Sc1cccc3c1C2CNC3 (centres undefined) [1,2,3,11b-Tetrahydro[1]benzothiopyrano[4,3,2-de]isoquinolin-8,9-diol] | 7.46
5 | CC1(C)c2cccc3c2[C@@H](CNC3)c2ccc(O)c(O)c21 (racemic) [NSC_0] | 6.41
6 | CN1Cc2cccc3c2[C@@H](C1)c1ccc(O)c(O)c1C3 (racemic) [NSC_0] | 7.15
7 | CCC1c2cccc3c2[C@@H](CNC3)c2ccc(O)c(O)c21 (mixture of isomers) [(+/-)-7-ethyldinapsoline hydrobromide] | 6.36
8 | COC(=O)CC1c2cccc3c2[C@@H](CNC3)c2ccc(O)c(O)c21 (mixture of isomers) [(+/-)-7-methoxycarbonylmethyldinapsoline] | 6.00
9 | Oc1ccc2c(c1O)Cc1cccc3c1[C@H]2CNC3C(F)(F)C(F)(F)C(F)(F)C(F)(F)F (mixture of isomers) [NSC_0] | 7.11
10 | Oc1ccc2c(c1O)Cc1c(F)ccc3c1C2CNC3 (centres undefined) [NSC_0] | 6.77

Continued, values first:

Row | pKi | Compound
11 | 6.80 | CC1c2cccc3c2[C@@H](CNC3)c2ccc(O)c(O)c21 (mixture of isomers) [(+/-)-7-methyldinapsoline hydrobromide]
12 | 7.82 | Oc1ccc2c(c1O)Cc1ccc(O)c3c1[C@H]2CNC3 [4-hydroxydinapsoline hydrobromide]
13 | 7.55 | Oc1ccc2c(c1O)Cc1ccc(F)c3c1[C@H]2CNC3 [NSC_0]

target: D(2) dopamine receptor (Homo sapiens, UniProt P14416)
Sequence (P14416 whole entry): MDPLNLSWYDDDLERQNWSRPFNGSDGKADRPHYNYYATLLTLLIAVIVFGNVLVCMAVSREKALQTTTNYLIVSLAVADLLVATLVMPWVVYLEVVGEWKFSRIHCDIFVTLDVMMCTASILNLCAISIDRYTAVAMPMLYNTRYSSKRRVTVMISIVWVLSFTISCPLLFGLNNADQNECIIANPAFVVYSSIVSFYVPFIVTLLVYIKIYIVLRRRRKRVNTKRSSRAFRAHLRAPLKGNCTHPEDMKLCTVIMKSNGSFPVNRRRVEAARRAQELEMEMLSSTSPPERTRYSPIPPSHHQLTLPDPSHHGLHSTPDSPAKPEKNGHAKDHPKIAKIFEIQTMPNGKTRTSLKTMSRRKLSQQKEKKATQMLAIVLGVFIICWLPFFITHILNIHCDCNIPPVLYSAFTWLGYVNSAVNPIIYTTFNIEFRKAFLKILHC

Row | pKi | Compound
14 | 7.40 | CC1NC[C@H]2c3ccc(O)c(O)c3Cc3cccc1c32 (mixture of isomers) [(+/-)-3-methyldinapsoline hydrobromide]
15 | 7.57 | CCc1ccc2c3c1Cc1c(ccc(O)c1O)[C@@H]3CNC2 [6-ethyldinapsoline hydrobromide]
16 | 7.82 | CCCN1Cc2cccc3c2[C@@H](C1)c1ccc(O)c(O)c1C3 (racemic) [(+/-)-2-propyldinapsoline hydrobromide]
17 | < 5.00 | CC1c2cccc3c2[C@@H](CN1C)c1ccc(O)c(O)c1C3 (mixture of isomers) [NSC_0]

target: D(1A) dopamine receptor (Rattus norvegicus, UniProt P18901)
Sequence (P18901 whole entry): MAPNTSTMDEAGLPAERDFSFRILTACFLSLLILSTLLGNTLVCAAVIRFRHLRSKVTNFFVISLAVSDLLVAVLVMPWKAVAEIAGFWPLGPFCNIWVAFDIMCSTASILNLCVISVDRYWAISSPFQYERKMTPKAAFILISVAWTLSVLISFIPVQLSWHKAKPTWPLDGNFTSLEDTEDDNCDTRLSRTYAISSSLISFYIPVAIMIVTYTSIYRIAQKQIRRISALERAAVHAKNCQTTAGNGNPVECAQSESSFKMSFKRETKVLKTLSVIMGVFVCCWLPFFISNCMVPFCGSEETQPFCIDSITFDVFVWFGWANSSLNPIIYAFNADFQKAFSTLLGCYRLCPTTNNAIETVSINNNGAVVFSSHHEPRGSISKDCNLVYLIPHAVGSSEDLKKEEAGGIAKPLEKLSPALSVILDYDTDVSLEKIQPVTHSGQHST

Row | Compound | pKi
18 | CC1NC[C@H]2c3ccc(O)c(O)c3Cc3cccc1c32 (mixture of isomers) [(+/-)-3-methyldinapsoline hydrobromide] | 5.70
19 | Oc1cc(Cl)c2c(c1O)Cc1cccc3c1[C@H]2CNC3 (racemic) [CAS_0] | 5.82
20 | O=[N+]([O-])c1cc(O)c(O)c2c1[C@@H]1CNCc3cccc(c31)C2 (racemic) [NSC_0] | < 5.00
21 | Oc1ccc2c(c1O)Sc1cccc3c1C2CNC3 (centres undefined) [1,2,3,11b-Tetrahydro[1]benzothiopyrano[4,3,2-de]isoquinolin-8,9-diol] | 6.27
22 | CCCN1Cc2cccc3c2[C@@H](C1)c1ccc(O)c(O)c1C3 (racemic) [(+/-)-2-propyldinapsoline hydrobromide] | 5.70
23 | CC1(C)c2cccc3c2[C@@H](CNC3)c2ccc(O)c(O)c21 (racemic) [NSC_0] | 6.06
24 | CN1Cc2cccc3c2[C@@H](C1)c1ccc(O)c(O)c1C3 (racemic) [NSC_0] | 6.42
25 | CCC1c2cccc3c2[C@@H](CNC3)c2ccc(O)c(O)c21 (mixture of isomers) [(+/-)-7-ethyldinapsoline hydrobromide] | 6.37
26 | COC(=O)CC1c2cccc3c2[C@@H](CNC3)c2ccc(O)c(O)c21 (mixture of isomers) [(+/-)-7-methoxycarbonylmethyldinapsoline] | 5.62
27 | CC1c2cccc3c2[C@@H](CN1C)c1ccc(O)c(O)c1C3 (mixture of isomers) [NSC_0] | 5.02
28 | Oc1ccc2c(c1O)Cc1cccc3c1[C@H]2CNC3C(F)(F)C(F)(F)C(F)(F)C(F)(F)F (mixture of isomers) [NSC_0] | 6.47
29 | Oc1ccc2c(c1O)Cc1c(F)ccc3c1C2CNC3 (centres undefined) [NSC_0] | 5.52

Next, values leading:

Row | pKi | Compound
30 | 6.52 | CCCCC1NC[C@H]2c3ccc(O)c(O)c3Cc3cccc1c32 (mixture of isomers) [(+/-)-3-n-butyldinapsoline hydrobromide]
31 | 6.86 | CC1c2cccc3c2[C@@H](CNC3)c2ccc(O)c(O)c21 (mixture of isomers) [(+/-)-7-methyldinapsoline hydrobromide]
32 | 7.14 | Oc1ccc2c(c1O)Cc1ccc(O)c3c1[C@H]2CNC3 [4-hydroxydinapsoline hydrobromide]
33 | 7.16 | Oc1ccc2c(c1O)Cc1ccc(F)c3c1[C@H]2CNC3 [NSC_0]
34 | 7.85 | CCc1ccc2c3c1Cc1c(ccc(O)c1O)[C@@H]3CNC2 [6-ethyldinapsoline hydrobromide]
